According to patent publication US8580802B2, “Pyrrolo[2,3-D]pyrimidines as inhibitors of Janus kinases” (Vertex Pharmaceuticals Incorporated, priority 2005, dated 2013):

What was measured:
JAK2 = JAK2 (Homo sapiens, UniProt O60674); experiment: JAK2 Inhibition Assay; type: biochemical; details: JAK-2 enzyme, 15 μM poly(Glu)4Tyr, 12 μM ATP
Protocol: (§1) Compounds were screened for their ability to inhibit JAK3 using the assay shown below. Reactions were carried out in a kinase buffer containing 100 mM HEPES (pH 7.4), 1 mM DTT, 10 mM MgCl2, 25 mM NaCl, and 0.01% BSA. Substrate concentrations in the assay were 5 μM ATP (200 uCi/μmole ATP) and 1 μM poly(Glu)4Tyr. Reactions were carried out 25° C. and 1 nM JAK3.
(§2) To each well of a 96 well polycarbonate plate was added 1.5 μl of a candidate JAK3 inhibitor along with 50 μl of kinase buffer containing 2 μM poly(Glu)4Tyr and 10 μM ATP. This was then mixed and 50 μl of kinase buffer containing 2 nM JAK3 enzyme was added to start the reaction. After 20 minutes at room temperature (25° C.), the reaction was stopped with 50 μl of 20% trichloroacetic acid (TCA) that also contained 0.4 mM ATP. The entire contents of each well were then transferred to a 96 well glass fiber filter plate using a TomTek Cell Harvester. After washing, 60 μl of scintillation fluid was added and ^33P incorporation detected on a Perkin Elmer TopCount.
The assays were as described above in Example 36 except that JAK-2 enzyme was used, the final poly(Glu)4Tyr concentration was 15 μM, and final ATP concentration was 12 μM.

JAK3 = molecular target: T1, JAK3 (Homo sapiens, UniProt P52333); experiment: JAK3 Inhibition Assay; type: biochemical; details: 1 nM JAK3, 1 μM poly(Glu)4Tyr, 5 μM ATP, 25° C.; read-out: enzyme inhibition data (Ki) JAK3
T1 sequence (P52333 1-1124): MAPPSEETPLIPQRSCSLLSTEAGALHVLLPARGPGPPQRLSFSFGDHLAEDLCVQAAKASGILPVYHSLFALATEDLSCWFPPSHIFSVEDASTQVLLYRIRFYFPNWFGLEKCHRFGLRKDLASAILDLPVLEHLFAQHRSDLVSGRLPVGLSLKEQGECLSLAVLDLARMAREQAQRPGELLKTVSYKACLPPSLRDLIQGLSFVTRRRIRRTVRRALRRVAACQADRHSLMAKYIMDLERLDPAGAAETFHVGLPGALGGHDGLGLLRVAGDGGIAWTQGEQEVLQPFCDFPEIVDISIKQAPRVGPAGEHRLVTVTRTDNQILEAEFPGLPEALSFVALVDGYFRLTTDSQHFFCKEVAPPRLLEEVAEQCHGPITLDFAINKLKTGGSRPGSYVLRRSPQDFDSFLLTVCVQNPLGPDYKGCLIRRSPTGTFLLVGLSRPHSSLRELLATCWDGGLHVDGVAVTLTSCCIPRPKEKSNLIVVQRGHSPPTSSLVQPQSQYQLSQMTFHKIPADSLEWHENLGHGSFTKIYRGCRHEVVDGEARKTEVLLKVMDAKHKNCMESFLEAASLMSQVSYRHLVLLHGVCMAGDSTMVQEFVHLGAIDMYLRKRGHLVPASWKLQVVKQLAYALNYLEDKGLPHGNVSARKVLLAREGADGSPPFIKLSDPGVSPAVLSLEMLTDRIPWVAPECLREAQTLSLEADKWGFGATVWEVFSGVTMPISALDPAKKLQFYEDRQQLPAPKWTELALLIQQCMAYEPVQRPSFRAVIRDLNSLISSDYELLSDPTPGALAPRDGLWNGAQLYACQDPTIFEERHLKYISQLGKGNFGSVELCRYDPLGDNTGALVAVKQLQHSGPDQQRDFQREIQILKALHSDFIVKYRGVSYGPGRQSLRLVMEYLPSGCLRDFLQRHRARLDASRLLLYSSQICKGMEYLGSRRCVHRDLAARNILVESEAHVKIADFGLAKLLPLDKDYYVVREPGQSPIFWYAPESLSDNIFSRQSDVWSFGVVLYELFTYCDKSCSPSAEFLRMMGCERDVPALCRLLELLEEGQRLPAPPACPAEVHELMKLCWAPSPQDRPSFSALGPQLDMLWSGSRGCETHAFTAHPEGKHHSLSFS
Protocol: as §1, §2

JAK2, sequence (O60674 whole entry): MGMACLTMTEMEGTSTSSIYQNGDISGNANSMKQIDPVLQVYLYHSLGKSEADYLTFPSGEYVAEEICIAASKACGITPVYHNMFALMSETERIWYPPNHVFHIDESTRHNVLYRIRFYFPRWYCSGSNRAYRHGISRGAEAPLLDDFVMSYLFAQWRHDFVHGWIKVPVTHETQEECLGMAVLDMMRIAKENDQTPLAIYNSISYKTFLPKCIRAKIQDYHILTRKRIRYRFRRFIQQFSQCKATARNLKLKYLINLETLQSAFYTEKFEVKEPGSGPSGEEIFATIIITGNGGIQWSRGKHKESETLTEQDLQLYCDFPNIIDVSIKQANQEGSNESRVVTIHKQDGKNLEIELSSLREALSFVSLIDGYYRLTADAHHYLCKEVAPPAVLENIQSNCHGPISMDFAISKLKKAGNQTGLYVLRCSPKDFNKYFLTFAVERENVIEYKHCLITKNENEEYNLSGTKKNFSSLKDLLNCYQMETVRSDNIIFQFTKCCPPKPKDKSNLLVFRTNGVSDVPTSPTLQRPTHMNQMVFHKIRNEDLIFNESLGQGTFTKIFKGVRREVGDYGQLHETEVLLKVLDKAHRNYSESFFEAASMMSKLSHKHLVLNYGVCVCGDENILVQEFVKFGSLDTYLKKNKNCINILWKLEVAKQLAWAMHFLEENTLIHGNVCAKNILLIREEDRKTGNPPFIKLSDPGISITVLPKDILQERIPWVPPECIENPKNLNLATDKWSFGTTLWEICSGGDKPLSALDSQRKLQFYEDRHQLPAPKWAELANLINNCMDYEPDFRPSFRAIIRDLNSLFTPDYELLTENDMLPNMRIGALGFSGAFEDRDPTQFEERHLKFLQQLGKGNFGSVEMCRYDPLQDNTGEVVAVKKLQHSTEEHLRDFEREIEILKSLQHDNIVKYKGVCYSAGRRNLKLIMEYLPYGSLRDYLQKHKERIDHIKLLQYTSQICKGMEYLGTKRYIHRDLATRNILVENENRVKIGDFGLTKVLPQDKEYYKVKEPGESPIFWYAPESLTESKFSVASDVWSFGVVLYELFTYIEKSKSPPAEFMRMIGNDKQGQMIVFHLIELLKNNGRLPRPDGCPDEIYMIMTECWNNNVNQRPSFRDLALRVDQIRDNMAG

| SMILES | Ki (JAK2) [nM] | Ki (JAK3) [nM] |
| --- | --- | --- |
| C[C@H](Nc1nc(-c2c[nH]c3ncncc23)nc(N2CCCC2)n1)C(=O)NCC(F)(F)F [Compound 33, (S)-2-(4-(pyrrolidin-1-yl)-6-(7H-pyrrolo[2,3-d]pyrimidin-5-yl)-1,3,5-triazin-2-ylamino)-N-(2,2,2-trifluoroethyl)propanamide] | > 5000 | > 5000 |
| C[C@H](Nc1nc(-c2c[nH]c3ncncc23)nc(N2CCOCC2)n1)C(=O)NCC(F)(F)F [Compound 37, (S)-2-(4-morpholino-6-(7H-pyrrolo[2,3-d]pyrimidin-5-yl)-1,3,5-triazin-2-ylamino)-N-(2,2,2-trifluoroethyl)propanamide] | > 5000 | > 5000 |
| C[C@@H](Nc1nc(-c2c[nH]c3ncncc23)nc2ccccc12)C(=O)NCC(F)(F)F [Compound 38] | < 500 | < 500 |
| C[C@@H](Nc1ccnc(-c2c[nH]c3ncncc23)n1)C(=O)NCC(F)(F)F [Compound 39, (R)-2-(2-(7H-pyrrolo[2,3-d]pyrimidin-5-yl)pyrimidin-4-ylamino)-N-(2,2,2-trifluoroethyl)propanamide] | < 500 | < 500 |
| C[C@@H](Nc1nc(-c2c[nH]c3ncncc23)ncc1F)C(=O)NCC(F)(F)F [Compound 40, (R)-2-(5-fluoro-2-(7H-pyrrolo[2,3-d]pyrimidin-5-yl)pyrimidin-4-ylamino)-N-(2,2,2-trifluoroethyl)propanamide] | < 500 | < 500 |
| CC[C@H](Nc1nc(-c2c[nH]c3ncncc23)ncc1F)C(=O)NCC(F)(F)F [Compound 41, (S)-2-(5-fluoro-2-(7H-pyrrolo[2,3-d]pyrimidin-5-yl)pyrimidin-4-ylamino)-N-(2,2,2-trifluoroethyl)butanamide] | 500 to 5000 | < 500 |
| CCNC(=O)C(CC(F)(F)F)Nc1nc(-c2c[nH]c3ncncc23)ncc1F (stereo not shown) [Compound 44, 2-(5-fluoro-2-(7H-pyrrolo[2,3-d]pyrimidin-5-yl)pyrimidin-4-ylamino)-N-ethyl-4,4,4-trifluorobutanamide] | 500 to 5000 | 500 to 5000 |
| O=C(NCC(F)(F)F)C(CC(F)(F)F)Nc1nc(-c2c[nH]c3ncncc23)ncc1F (stereo not shown) [Compound 45, 2-(5-fluoro-2-(7H-pyrrolo[2,3-d]pyrimidin-5-yl)pyrimidin-4-ylamino)-4,4,4-trifluoro-N-(2,2,2-trifluoroethyl)butanamide] | < 500 | < 500 |
| C[C@H](Nc1nc(-c2c[nH]c3ncncc23)ccc1[N+](=O)[O-])C(=O)NCC(F)(F)F [Compound 46] | 500 to 5000 | < 500 |
| COC[C@H](Nc1nc(-c2c[nH]c3ncncc23)nc2ccccc12)C(=O)NCC(F)(F)F [Compound 47] | > 5000 | 500 to 5000 |
| COC[C@H](Nc1ccnc(-c2c[nH]c3ncncc23)n1)C(=O)NCC(F)(F)F [Compound 48, (S)-2-(2-(7H-pyrrolo[2,3-d]pyrimidin-5-yl)pyrimidin-4-ylamino)-N-(2,2,2-trifluoroethyl)-3-methoxypropanamide] | > 5000 | 500 to 5000 |
| O=C(NCC(F)(F)F)[C@H](CO)Nc1nc(-c2c[nH]c3ncncc23)ncc1F [Compound 50] | 500 to 5000 | < 500 |
| O=C(NCC(F)(F)F)[C@H](CO)Nc1ccnc(-c2c[nH]c3ncncc23)n1 [Compound 51] | > 5000 | > 5000 |
| O=C(NCC(F)(F)F)[C@@H]1C[C@H](F)CN1c1nc(-c2c[nH]c3ncncc23)ncc1F [Compound 52] | 500 to 5000 | 500 to 5000 |
| O=C(NCC(F)(F)F)[C@@H]1C[C@@H](F)CN1c1nc(-c2c[nH]c3ncncc23)ncc1F [Compound 53] | > 5000 | 500 to 5000 |
| O=C(NCC(F)(F)F)[C@@H]1CCN1c1cnc(-c2c[nH]c3ncncc23)nc1 [Compound 55] | 500 to 5000 | 500 to 5000 |
| CC(C)(Nc1nc(-c2c[nH]c3ncncc23)ncc1F)C(=O)NCC(F)(F)F [Compound 56, 2-(5-fluoro-2-(7H-pyrrolo[2,3-d]pyrimidin-5-yl)pyrimidin-4-ylamino)-N-(2,2,2-trifluoroethyl)-2-methylpropanamide] | < 500 | < 500 |
| O=C(NCC(F)(F)F)C1(Nc2nc(-c3c[nH]c4ncncc34)ncc2F)CC1 [Compound 57] | < 500 | < 500 |
| C[C@H](Nc1nc(-c2c[nH]c3ncncc23)ncc1F)c1ccc(F)cc1 [Compound 59] | < 500 | < 500 |
| O=C(NCC(F)(F)F)C1COCCN1c1cnc(-c2c[nH]c3ncncc23)nc1 (stereo not shown) [Compound 60] | 500 to 5000 | < 500 |
| CC(C)[C@@](C)(Nc1nc(-c2c[nH]c3ncncc23)ncc1F)C(=O)NCC(F)(F)F [Compound 65] | < 500 | < 500 |
| CC(C)C(C(=O)NCC(F)(F)F)N(C)c1nc(-c2c[nH]c3ncncc23)ncc1F (stereo not shown) [Compound 66] | < 500 | < 500 |

The remaining lines, values ahead:

| Ki (JAK2) [nM] | Ki (JAK3) [nM] | SMILES |
| --- | --- | --- |
| > 5000 | > 5000 | C[C@H](Nc1cc(N2CCCC2)nc(-c2c[nH]c3ncncc23)n1)C(=O)NCC(F)(F)F [Compound 32, (S)-2-(6-(pyrrolidin-1-yl)-2-(7H-pyrrolo[2,3-d]pyrimidin-5-yl)pyrimidin-4-ylamino)-N-(2,2,2-trifluoroethyl)propanamide] |
| 500 to 5000 | < 500 | C[C@H](Nc1nc(-c2c[nH]c3ncncc23)nc2ccccc12)C(=O)NCC(F)(F)F [Compound 34] |
| > 5000 | 500 to 5000 | C[C@H](Nc1nc(-c2c[nH]c3ncncc23)cc(N2CCOCC2)n1)C(=O)NCC(F)(F)F [Compound 35] |
| > 5000 | > 5000 | C[C@H](Nc1cc(N2CCOCC2)nc(-c2c[nH]c3ncncc23)n1)C(=O)NCC(F)(F)F [Compound 36, (S)-2-(6-morpholino-2-(7H-pyrrolo[2,3-d]pyrimidin-5-yl)pyrimidin-4-ylamino)-N-(2,2,2-trifluoroethyl)propanamide] |
| 500 to 5000 | < 500 | COC[C@H](Nc1nc(-c2c[nH]c3ncncc23)ncc1F)C(=O)NCC(F)(F)F [Compound 42, (S)-2-(5-fluoro-2-(7H-pyrrolo[2,3-d]pyrimidin-5-yl)pyrimidin-4-ylamino)-N-(2,2,2-trifluoroethyl)-3-methoxypropanamide] |
| 500 to 5000 | 500 to 5000 | CNC(=O)C(CC(F)(F)F)Nc1nc(-c2c[nH]c3ncncc23)ncc1F (stereo not shown) [Compound 43, 2-(5-fluoro-2-(7H-pyrrolo[2,3-d]pyrimidin-5-yl)pyrimidin-4-ylamino)-4,4,4-trifluoro-N-methylbutanamide] |
| > 5000 | 500 to 5000 | Nc1nc(-c2c[nH]c3ncncc23)ncc1F [Compound 49] |
| < 500 | < 500 | O=C(NCC(F)(F)F)[C@H]1CCCCN1c1cnc(-c2c[nH]c3ncncc23)nc1 [Compound 54] |
| < 500 | < 500 | C[C@@H](Nc1nc(-c2c[nH]c3ncncc23)ncc1F)c1ccc(F)cc1 [Compound 58] |
| 500 to 5000 | < 500 | O=C(NCC(F)(F)F)[C@@H]1CCCCN1c1ccnc(-c2c[nH]c3ncncc23)n1 [Compound 61] |
| < 500 | < 500 | O=C(NCC(F)(F)F)C1(Nc2nc(-c3c[nH]c4ncncc34)ncc2F)CCCCC1 [Compound 62] |
| < 500 | < 500 | CC(C)(Nc1ccnc(-c2c[nH]c3ncncc23)n1)C(=O)NCC(F)(F)F [Compound 63] |
| < 500 | < 500 | O=C(NCC(F)(F)F)C1(Nc2ccnc(-c3c[nH]c4ncncc34)n2)CCC1 [Compound 64] |
